Measured values: US11524966B1 (Valo Early Discovery, Inc., priority 2017, dated 2022)

Target: T1, USP25 (USP25-His6, Boston Biochem E-546) (Homo sapiens, UniProt Q9UHP3)
T1 construct: His6; purchased Boston Biochem E-546
T1 sequence (Q9UHP3 1-1055): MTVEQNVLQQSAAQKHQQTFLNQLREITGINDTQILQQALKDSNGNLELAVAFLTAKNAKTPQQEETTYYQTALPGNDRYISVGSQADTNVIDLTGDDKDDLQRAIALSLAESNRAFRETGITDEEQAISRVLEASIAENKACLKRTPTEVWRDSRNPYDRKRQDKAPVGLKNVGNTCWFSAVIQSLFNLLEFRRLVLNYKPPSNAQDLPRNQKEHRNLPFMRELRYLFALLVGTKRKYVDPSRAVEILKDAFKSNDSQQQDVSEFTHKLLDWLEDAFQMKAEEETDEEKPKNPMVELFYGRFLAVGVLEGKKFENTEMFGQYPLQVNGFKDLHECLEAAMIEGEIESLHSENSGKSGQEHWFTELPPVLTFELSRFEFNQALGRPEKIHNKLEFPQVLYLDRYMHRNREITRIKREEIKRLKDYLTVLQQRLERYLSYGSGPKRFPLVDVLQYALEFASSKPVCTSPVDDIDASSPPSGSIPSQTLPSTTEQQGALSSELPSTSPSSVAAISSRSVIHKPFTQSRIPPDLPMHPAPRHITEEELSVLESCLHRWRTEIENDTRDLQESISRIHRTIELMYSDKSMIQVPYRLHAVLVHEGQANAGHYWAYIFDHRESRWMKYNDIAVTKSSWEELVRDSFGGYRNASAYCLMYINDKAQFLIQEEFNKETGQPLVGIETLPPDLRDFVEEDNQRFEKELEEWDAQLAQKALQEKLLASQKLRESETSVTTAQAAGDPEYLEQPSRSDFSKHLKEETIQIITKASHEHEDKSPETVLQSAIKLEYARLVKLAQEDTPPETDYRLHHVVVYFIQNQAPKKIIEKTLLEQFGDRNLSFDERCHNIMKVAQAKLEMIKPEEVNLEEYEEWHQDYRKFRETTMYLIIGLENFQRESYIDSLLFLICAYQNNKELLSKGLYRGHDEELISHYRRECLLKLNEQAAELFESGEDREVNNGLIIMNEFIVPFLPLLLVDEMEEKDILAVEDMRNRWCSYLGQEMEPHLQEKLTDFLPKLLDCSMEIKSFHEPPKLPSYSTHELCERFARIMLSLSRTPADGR
Experiment: Ubiquitin-Rhodamine 110 Assay for USP25 Activity, Example A-2
Type: biochemical
Settings: Ubiquitin-Rhodamine 110 assay, Example A-2; read-out: USP25 A-2 IC50 range
Procedure, shortened: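 Fluorescence (ex 485, em 535 nm) of cleaved ubiquitin-rhodamine 110 (25 nM, below Km) gave IC50 via 4-parameter logistic fit. Reaction: 45 min, room temperature, citric acid stop, after 30 min compound preincubation with 75 pM USP25-His6 in 20 mM Tris pH 8.0, 3 mM BME, 0.03% BGG, 0.01% Triton X-100; top dose 25 μM.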

CO[C@H]1CN(c2ccc3c(c2)OC[C@H](NC(=O)c2sc4nc(C)cnc4c2N)C3)C[C@@H]1N [Example 117, 7-amino-N-[(3R)-7-[(3S,4S)-3-amino-4-methoxypyrrolidin-1-yl]-3,4-dihydro-2H-1-benzopyran-3-yl]-3-methylthieno[2,3-b]pyrazine-6-carboxamide]
IC50: 0.2 to 2 µM

CO[C@H]1CN(c2ccc3c(c2)OC[C@H](NC(=O)c2sc4nc(C)sc4c2N)C3)C[C@@H]1N [Example 118, 6-amino-N-[(3R)-7-[(3S,4S)-3-amino-4-methoxypyrrolidin-1-yl]-3,4-dihydro-2H-1-benzopyran-3-yl]-2-methylthieno[2,3-d][1,3]thiazole-5-carboxamide]
IC50: 0.2 to 2 µM

CO[C@H]1CCN(c2ccc3c(c2)OC[C@H](NC(=O)c2sc4nc(C)ccc4c2N)C3)C[C@@H]1N [Example 119, 3-amino-N-[(3R)-7-[(3S,4S)-3-amino-4-methoxypiperidin-1-yl}-3,4-dihydro-2H-1-benzopyran-3-yl]-6-methylthieno[2,3-b]pyridine-2-carboxamide]
IC50: 0.2 to 2 µM

CO[C@@H]1CCN(c2ccc3c(c2)OC[C@H](NC(=O)c2sc4nc(C)ccc4c2N)C3)C[C@H]1N [Example 120, 3-amino-N-[(3R)-7-[(3R,4R)-3-amino-4-methoxypiperidin-1-yl]-3,4-dihydro-2H-1-benzopyran-3-yl]-6-methylthieno[2,3-b]pyridine-2-carboxamide]
IC50: 0.2 to 2 µM

CO[C@@H]1CN(c2ccc3c(c2)OC[C@H](NC(=O)c2sc4nc(C)ccc4c2N)C3)C[C@@H]1N [Example 121, 3-amino-N-[(3R)-7-[(3S,4R)-3-amino-4-methoxypyrrolidin-1-yl]-3,4-dihydro-2H-1-benzopyran-3-yl]-6-methylthieno[2,3-b]pyridine-2-carboxamide]
IC50: 0.2 to 2 µM

CO[C@H]1CN(c2ccc3c(c2)OC[C@H](NC(=O)c2sc4nc(C)ccc4c2N)C3)C[C@H]1N [Example 122, 3-amino-N-[(3R)-7-[(3R,4S)-3-amino-4-methoxypyrrolidin-1-yl]-3,4-dihydro-2H-1-benzopyran-3-yl]-6-methylthieno[2,3-b]pyridine-2-carboxamide]
IC50: 0.2 to 2 µM

Cc1ccc2c(N)c(C(=O)N[C@H]3COc4cc([C@H]5C[C@@H](N)C5)ccc4C3)sc2n1 [Example 123, 3-amino-6-methyl-N-[(3R)-7-[(1s,3S)-3-aminocyclobutyl]-3,4-dihydro-2H-1-benzopyran-3-yl]thieno[2,3-b]pyridine-2-carboxamide]
IC50: 0.2 to 2 µM

Cc1ccc2c(N)c(C(=O)N[C@H]3COc4cc([C@H]5C[C@H](N)C5)ccc4C3)sc2n1 [Example 124, 3-amino-6-methyl-N-[(3R)-7-[(1r,3r)-3-aminocyclobutyl]-3,4-dihydro-2H-1-benzopyran-3-yl]thieno[2,3-b]pyridine-2-carboxamide]
IC50: 0.2 to 2 µM

Cc1ccc2c(N)c(C(=O)N[C@H]3COc4cc(C5CC6COCC(C5)N6)ccc4C3)sc2n1 (stereo partly drawn) [Example 125, 3-amino-6-methyl-N-[(3R)-7-{3-oxa-9-azabicyclo[3.3.1]nonan-7-yl}-3,4-dihydro-2H-1-benzopyran-3-yl]thieno[2,3-b]pyridine-2-carboxamide]
IC50: 0.05 to 0.2 µM

Cc1ccc2c(N)c(C(=O)N[C@H]3COc4cc(N5CC6CCC(C5)N6)c(C#N)c(F)c4C3)sc2n1 [Example 126, 3-amino-N-[(3R)-6-cyano-7-{3,8-diazabicyclo[3.2.1]octan-3-yl}-5-fluoro-3,4-dihydro-2H-1-benzopyran-3-yl]-6-methylthieno[2,3-b]pyridine-2-carboxamide]
IC50: 0.001 to 0.05 µM

Cc1ccc2c(N)c(C(=O)N[C@H]3COc4cc(N5CC6CNCC(C5)O6)c(C#N)c(F)c4C3)sc2n1 [Example 127, 3-amino-N-[(3R)-6-cyano-5-fluoro-7-{9-oxa-3,7-diazabicyclo[3.3.1]nonan-3-yl}-3,4-dihydro-2H-1-benzopyran-3-yl]-6-methylthieno[2,3-b]pyridine-2-carboxamide]
IC50: 0.05 to 0.2 µM

CO[C@H]1CN(c2ccc3c(c2)OC[C@H](NC(=O)c2sc4nc(C)ccc4c2N)C3)CC[C@@H]1N [Example 128, 3-amino-N-[(3R)-7-[(3S,4S)-4-amino-3-methoxypiperidin-1-yl]-3,4-dihydro-2H-1-benzopyran-3-yl]-6-methylthieno[2,3-b]pyridine-2-carboxamide]
IC50: 0.2 to 2 µM

CO[C@@H]1CN(c2ccc3c(c2)OC[C@H](NC(=O)c2sc4nc(C)ccc4c2N)C3)CC[C@H]1N [Example 129, 3-amino-N-[(3R)-7-[(3R,4R)-4-amino-3-methoxypiperidin-1-yl]-3,4-dihydro-2H-1-benzopyran-3-yl]-6-methylthieno[2,3-b]pyridine-2-carboxamide]
IC50: 0.2 to 2 µM

CO[C@H]1CN(c2ccc3c(c2)CC[C@H](NC(=O)c2sc4nc(C)cnc4c2N)C3)C[C@@H]1N [Example 130, 7-amino-N-[(2S)-6-[(3S,4S)-3-amino-4-methoxypyrrolidin-1-yl]-1,2,3,4-tetrahydronaphthalen-2-yl]-3-methylthieno[2,3-b]pyrazine-6-carboxamide]
IC50: 0.2 to 2 µM

CCn1ccc2cc(C(=O)N[C@H]3CCc4cc(N5C[C@H](OC)[C@@H](N)C5)ccc4C3)nnc21 [Example 131, N-[(2S)-6-[(3S,4S)-3-amino-4-methoxypyrrolidin-1-yl]-1,2,3,4-tetrahydronaphthalen-2-yl]-7-ethyl-7H-pyrrolo[2,3-c]pyridazine-3-carboxamide]
IC50: > 2 µM

CCn1ccc2cc(C(=O)N[C@H]3CCc4cc(N5C[C@H](OC)[C@@H](N)C5)ccc4C3)cnc21 [Example 132, N-[(2S)-6-[(3S,4S)-3-amino-4-methoxypyrrolidin-1-yl]-1,2,3,4-tetrahydronaphthalen-2-yl]-1-ethyl-1H-pyrrolo[2,3-b]pyridine-5-carboxamide]
IC50: > 2 µM

CO[C@H]1CN(c2ccc3c(c2)CC[C@H](NC(=O)c2sc4nc(C)sc4c2N)C3)C[C@@H]1N [Example 133, 6-amino-N-[(2S)-6-[(3S,4S)-3-amino-4-methoxypyrrolidin-1-yl]-1,2,3,4-tetrahydronaphthalen-2-yl]-2-methylthieno[2,3-d][1,3]thiazole-5-carboxamide]
IC50: > 2 µM

COc1ccc2c(N)c(C(=O)N[C@H]3CCc4cc(N5C[C@H](OC)[C@@H](N)C5)ccc4C3)sc2n1 [Example 134, 3-amino-N-[(2S)-6-[(3S,4S)-3-amino-4-methoxypyrrolidin-1-yl]-1,2,3,4-tetrahydronaphthalen-2-yl]-6-methoxythieno[2,3-b]pyridine-2-carboxamide]
IC50: > 2 µM

COc1nc2sc(C(=O)N[C@H]3CCc4cc(N5C[C@H](OC)[C@@H](N)C5)ccc4C3)c(N)c2cc1F [Example 135, 3-amino-N-[(2S)-6-[(3S,4S)-3-amino-4-methoxypyrrolidin-1-yl]-1,2,3,4-tetrahydronaphthalen-2-yl]-5-fluoro-6-methoxythieno[2,3-b]pyridine-2-carboxamide]
IC50: > 2 µM

CO[C@H]1CN(c2cc(F)c3c(c2)CC[C@H](NC(=O)c2sc4nc(C)ccc4c2N)C3)C[C@@H]1N [Example 136, 3-amino-N-[(2S)-6-[(3S,4S)-3-amino-4-methoxypyrrolidin-1-yl]-8-fluoro-1,2,3,4-tetrahydronaphthalen-2-yl]-6-methylthieno[2,3-b]pyridine-2-carboxamide]
IC50: > 2 µM
